Source: US5250734A, “Phenanthrene methanol compounds useful as antimalarial agents” (Belmac Corporation, priority 1992, dated 1993)
“Also recorded” adds a separate entry of the source. Where a name gives a salt, the structure may show the parent alone. Read-outs that look alike come from different tables or passages of the source.

Experiments:
[1] = tested on: Plasmodium berghei KBG 173; assay: Survival of malaria infected mice, compound of Synthesis Example 2, halofantrine or mefloquine; type: in vivo, Plasmodium berghei KBG 173 in ICR/HA Swiss mice
[2] = Toxicity in malaria infected mice; type: in vivo, ICR/HA Swiss mice; conditions: 256 mg/kg/day
Excerpt: (§1) Utilizing young ICR/HA Swiss mice and a standard inoculum of Plasmodium berghei KBG 173, it was possible to produce a uniform disease fatal to […] of untreated animals within 6 to 8 days with a mean survival time of 6.2 days. Test animals weighed from 18 to 22 grams but weight variations in any given experimental or control group were confined to 2-3 grams. All animals in any given test were approximately of the same age. Animals on test were housed in metal-topped plastic cages, given a standard laboratory diet and water ad libitum.
(§2) Test animals received an intraperitoneal injection of 0.5 ml of 1:100 dilution of heparinized heart's blood with a minimum of 90% parasitized cells (4×10^7 cells), drawn from donor mice infected one week earlier with Plasmodium berghei. The donor strain was maintained by weekly passages in separate groups of mice inoculated with a 0.5 ml of 1:500 dilution of heparinized heart's blood.
Test compounds were administered after dissolution or suspension in peanut oil. A single dose was given subcutaneously 72 hours after the mice were infected with Plasmodium berghei. At this time a 10-15 percent parasitemia had developed; the disease was well established but had not produced sufficient debility to alter the response of the host to toxic effects of the drug on test. […]

[3] = tested on: Plasmodium berghei KBG 173; assay: Mean parasitemias for mice treated with the compound of Synthesis Example 2; type: in vivo, Plasmodium berghei KBG 173 in ICR/HA Swiss mice
[4] = tested on: Plasmodium berghei KBG 173; assay: Survival of mice infected with drug-sensitive malaria, compound of Synthesis Example 3, halofantrine or mefloquine; type: in vivo, Plasmodium berghei KBG 173 in ICR/HA Swiss mice
[5] = tested on: Plasmodium berghei KBG 173; assay: as above; type: in vivo, Plasmodium berghei KBG 173 in ICR/HA Swiss mice; conditions: SC
Excerpt: The protocol which is set forth below is a well-established model for the treatment of malaria in human beings, and has been adopted by the U.S. Army Medial Research Command.
The system used for the compounds formed in Synthesis Examples 2 and 3 was based on comparisons of responses to test compounds by Plasmodium berghei KBG 173 malaria in mice as expressed in mean survival times and the mean survival times of untreated controls. Thus, compounds noted as active produced increases in the survival times of the treated animals that are significant when compared with the survival times of untreated controls. Since an established disease is less sensitive to treatment than a disease in the early stages of development, treatment was withheld until the parasitemia was relatively high in order to ensure a more reliable assay of activity and the selection of appropriate compounds for pre-clinical studies.
as §1, §2
(§3) Test compounds were administered after dissolution or suspension in peanut oil. A single dose was given subcutaneously 72 hours after the mice were infected with Plasmodium berghei. At this time a 10-15 percent parasitemia had developed; the disease was well established but had not produced sufficient debility to alter the response of the host to toxic effects of the drug on test. Since treatment was withheld for three days to permit the infection to become well-established and death occurred in untreated controls within 6-8 days, it was felt that this system presented a candidate compound with the maximum challenge.

[6] = tested on: Plasmodium falciparum (chloroquine-sensitive and resistant strains); conditions: cited from earlier work
Plasmodium falciparum = assay: In vitro antimalarial activity against established lines of P. falciparum (overall statement); type: cell-based
Method: The compound of Synthesis Example 1 was tested against the established lines of Plasmodium falciparum in vitro. Halofantrine hydrochloride was used as a reference drug.
(§4) Three strains of P. falciparum were used. FCM 29/Cameroon was highly chloroquine- and quinine-resistant (IC50 […] and 800 nM, respectively). The strain was cloned by a dilution method. FCM 6/Thailand was moderately chloroquine-resistant (IC50 600 nM), while L-3/Ivory Coast was chloroquine-susceptible (IC50 20 nM). The continuous in vitro culture of the parasites was maintained under standard conditions, as described by W. Trager and J. B. Jensen, "Human malaria parasites in continuous culture", Science 193, 673-675 (1976), with a gas phase of 5% O2, 5% CO2, and 90% N2.
The test compound was dissolved in methanol to a concentration of 1 mg/ml. […]
(§5) The testing procedures used for the in vitro assay in this study were those described by J. Le Bras and P. Deloron, "In vitro study of drug sensitivity of Plasmodium falciparum: an evaluation of a new semi-microtest", American Journal of Tropical Medicine and Hygiene 32: 447-451 (1983). […] The filter discs were dried and placed in a mini-vial with 1.5 ml of liquid scintillation cocktail (OptiScint `Hisafe`, LKB, Wallac, England) and the amount of radioactivity incorporated by the parasites was measured by a liquid scintillation counter (Wallac 1410, Pharmacia, Sweden). […]

[7] = tested on: Plasmodium falciparum FCM 6/Thailand; assay: In vitro drug susceptibility test ([3H]hypoxanthine uptake), strain FCM 6/Thailand; type: cell-based; conditions: mean ± SEM from four separate assays
Method: as §4
(§6) The test compound was dissolved in methanol to a concentration of 1 mg/ml. Triplicates of seven serial dilutions were prepared to obtain the final concentrations ranging from 0.4 to 25 ng/ml and distributed in 24-well plates. […]
as §5

[8] = tested on: Plasmodium falciparum FCM 29/Cameroon; assay: In vitro drug susceptibility test ([3H]hypoxanthine uptake), strain FCM 29/Cameroon; type: cell-based
Method: as §4, §6, §5

[9] = tested on: Plasmodium falciparum L-3/Ivory Coast; assay: In vitro drug susceptibility test ([3H]hypoxanthine uptake), strain L-3/Ivory Coast; type: cell-based; conditions: two values given
Method: as §4, §6, §5

[10] = tested on: Chesson strain of P. vivax; conditions: short period, minimum of two doses; cited from earlier work
[11] = tested on: P. falciparum (multi-drug resistant Vietnam Smith strain and Cambodian Buchanan strain); conditions: short period, minimum of two doses; Vietnam Smith and Cambodian Buchanan strains; cited from earlier work
[12] = in vivo; cited from earlier work
Plasmodium berghei = assay: Positive control group of infected mice treated with pyrimethamine; type: in vivo, Plasmodium berghei in ICR/HA Swiss mice; conditions: dose levels not stated
Method: as §3

## 1,3-dichloro-6-triflurormethyl-[1-hydroxy-3-(3-phenyl-1-propylamino)propyl] phenanthrene quinate [Synthesis Example 2]
[1]; 1 mg/kg/day, PO
  number of mice alive day 21/total: 3/7
[1]; 1 mg/kg/day, SC
  number of mice alive day 21/total: 3/7
[1]; 4 mg/kg/day, PO
  number of mice alive day 21/total: 7/7
[1]; 4 mg/kg/day, SC
  number of mice alive day 21/total: 5/7
[1]; 16 mg/kg/day, PO
  number of mice alive day 21/total: 6/7
  number of mice dead/day died: 1/21
[1]; 16 mg/kg/day, SC
  number of mice alive day 21/total: 7/7
[1]; 64 mg/kg/day, PO
  number of mice alive day 21/total: 7/7
[1]; 64 mg/kg/day, SC
  number of mice alive day 21/total: 7/7
[1]; 256 mg/kg/day, PO
  number of mice alive day 21/total: 1/7
[1]; 256 mg/kg/day, SC
  number of mice alive day 21/total: 5/7
[2]
  toxicity: Toxicity clearly evident at this level
[3]; 4 mg/kg/day, oral
  mean parasitemia: 31.2
[3]; 4 mg/kg/day, subcut.
  mean parasitemia: 45.2
[3]; 16 mg/kg/day, oral
  mean parasitemia: 16.3
[3]; 16 mg/kg/day, subcut.
  mean parasitemia: 10.7
[3]; 64 mg/kg/day, oral
  mean parasitemia: 0.14
[3]; 64 mg/kg/day, subcut.
  mean parasitemia: 0.4
[3]; 256 mg/kg/day, oral
  mean parasitemia: 1.00
[3]; 256 mg/kg/day, subcut.
  mean parasitemia: 0.00
[3]; 1 (printed "l") mg/kg/day, oral
  mean parasitemia: 19.3
[3]; 1 (printed "l") mg/kg/day, subcut.
  mean parasitemia: 61.7

## OC(c1cc(C(F)(F)F)nc2c(C(F)(F)F)cccc12)C1CCCCN1 (stereo not drawn) [Mefloquine, α-2-piperidinyl-2,8-bis(trifluorormethyl)-4-quinoline methanol]
[1]; 1 mg/kg/day, PO
  number of mice alive day 21/total: 0/7
[1]; 4 mg/kg/day, PO
  number of mice alive day 21/total: 3/7
[1]; 16 mg/kg/day, PO
  number of mice alive day 21/total: 7/7
[4]; 1 mg/kg/day, PO
  number of mice alive D + 18 / total: 0/7
[4]; 4 mg/kg/day, PO
  number of mice alive D + 18 / total: 6/7
  number of mice dead/day died: 1/16
[4]; 4 mg/kg/day, SC
  number of mice dead/day died: 3/13
[4]; 16 mg/kg/day, PO
  number of mice alive D + 18 / total: 7/7
[5]; 1 mg/kg/day
  number of mice alive D + 18 / total: 0/7
[5]; 4 mg/kg/day
  number of mice alive D + 18 / total: 4/7
[5]; 16 mg/kg/day
  number of mice alive D + 18 / total: 7/7
[6]
  antimalarial activity in humans: exhibit antimalarial activity in humans against both chloroquine-sensitive and resistant strains

## CCCCNCCC(O)c1cc2c(Cl)cc(Cl)cc2c2cc(C(F)(F)F)ccc12.Cl (centres unmarked) [Synthesis Example 1, 1,3-Dichloro-6-trifluoromethyl-9-[1-hydroxy-3-(butylamino)propyl] phenanthrene hydrochloride]
Plasmodium falciparum; P. falciparum, reference halofantrine
  activity compared with halofantrine: slightly less than that of halofantrine
Plasmodium falciparum; chloroquine-susceptible and chloroquine-resistant strains, hydrochloride
  antimalarial activity: high antimalarial activity against both chloroquine-susceptible and chloroquine-resistant strains; also recorded: potent antimalarial action at a low nanomolar range
[7]
  IC50: 3 ± 0.2 ng/mL
[8]
  IC50: 3.5 ± 0.6 ng/mL
[9]; Plasmodium falciparum
  IC50: 4.3 ng/mL
[9]; hydrochloride
  IC50: 4.8 ng/mL

## Cl.OC(CCNCCCc1ccccc1)c1cc2c(Cl)cc(Cl)cc2c2cc(C(F)(F)F)ccc12 (centres unmarked) [Synthesis Example 3, 1,3-dichloro-6-trifluoromethyl-9-[1-hydroxy-3-(3-phenyl-1-propylamino)propyl] phenanthrene hydrochloride]
[4]; 1 mg/kg/day, PO
  number of mice alive D + 18 / total: 2/7
[4]; 1 mg/kg/day, SC
  number of mice alive D + 18 / total: 1/7
[4]; 4 mg/kg/day, PO
  number of mice alive D + 18 / total: 6/7
  number of mice dead/day died: 1/8
[4]; 4 mg/kg/day, SC
  number of mice alive D + 18 / total: 7/7
[4]; 16 mg/kg/day, PO
  number of mice alive D + 18 / total: 7/7
[4]; 64 mg/kg/day, PO
  number of mice alive D + 18 / total: 7/7
[4]; 64 mg/kg/day, SC
  number of mice alive D + 18 / total: 7/7
[4]; 256 mg/kg/day, PO
  number of mice alive D + 18 / total: 6/7
  number of mice dead/day died: 1/4
[4]; 256 mg/kg/day, SC
  number of mice alive D + 18 / total: 7/7
[5]; 16 mg/kg/day
  number of mice alive D + 18 / total: 7/7

## CCCCN(CCCC)CCC(O)c1cc2c(Cl)cc(Cl)cc2c2cc(C(F)(F)F)ccc12 (centres unmarked) [halofantrine, 1-[1,3-dichlorotrifluoromethyl-9-phenanthryl]-3-di-(n-butyl)-aminopropanolhydrochloride]
[1]; 1 mg/kg/day, PO
  number of mice alive day 21/total: 4/7
[1]; 1 mg/kg/day, SC
  number of mice alive day 21/total: 2/7
[1]; 4 mg/kg/day, PO
  number of mice alive day 21/total: 6/7
  number of mice dead/day died: 1/19
[1]; 4 mg/kg/day, SC
  number of mice alive day 21/total: 7/7
[1]; 16 mg/kg/day, PO
  number of mice alive day 21/total: 6/7
  number of mice dead/day died: 1/19
[1]; 16 mg/kg/day, SC
  number of mice alive day 21/total: 6/7
  number of mice dead/day died: 1/21
[10]
  antimalarial efficacy: effective
[11]
  antimalarial efficacy: effective
[4]; 1 mg/kg/day, PO
  number of mice alive D + 18 / total: 4/7
  number of mice dead/day died: 3/18
[4]; 4 mg/kg/day, PO
  number of mice alive D + 18 / total: 6/7
  number of mice dead/day died: 1/18
[4]; 16 mg/kg/day, PO
  number of mice alive D + 18 / total: 6/6
[5]; 1 mg/kg/day
  number of mice alive D + 18 / total: 5/7
[5]; 4 mg/kg/day
  number of mice alive D + 18 / total: 7/7
[5]; 16 mg/kg/day
  number of mice alive D + 18 / total: 7/7
[12]
  systemic bioavailability: problems with systemic bioavailability remained

## CCc1nc(N)nc(N)c1-c1ccc(Cl)cc1 [pyrimethamine]
Plasmodium berghei
  survival time: definite increases in survival time

## C=C[C@H]1C[N@@]2CC[C@H]1C[C@H]2[C@H](O)c1ccnc2ccc(OC)cc12 [quinine, reference compound]
[8]; read-out: IC50 (strain resistance)
  IC50: 800 nM
